Test results published in ChEMBL document CHEMBL4507268 (2021).

What was measured:
Conditions in all cases: Compound concentration 1.0 uM
[1] = target: T1, Mitogen-activated protein kinase 12 (Homo sapiens) (UniProt P53778)
T1 sequence (whole entry): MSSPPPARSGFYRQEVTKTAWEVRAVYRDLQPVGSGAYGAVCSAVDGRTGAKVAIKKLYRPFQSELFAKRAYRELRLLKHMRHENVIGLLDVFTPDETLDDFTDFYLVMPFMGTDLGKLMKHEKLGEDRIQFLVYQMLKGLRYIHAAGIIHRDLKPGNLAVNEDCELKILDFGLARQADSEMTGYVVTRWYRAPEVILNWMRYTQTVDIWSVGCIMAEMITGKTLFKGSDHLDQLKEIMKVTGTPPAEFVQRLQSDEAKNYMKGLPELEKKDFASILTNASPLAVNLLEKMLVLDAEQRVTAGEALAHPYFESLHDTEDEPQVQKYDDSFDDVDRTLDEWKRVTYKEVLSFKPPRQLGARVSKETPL

[2] = target: Serine/threonine-protein kinase B-raf (Homo sapiens) (UniProt P15056)
Chain of Serine/threonine-protein kinase B-raf (Homo sapiens) (P15056 whole entry): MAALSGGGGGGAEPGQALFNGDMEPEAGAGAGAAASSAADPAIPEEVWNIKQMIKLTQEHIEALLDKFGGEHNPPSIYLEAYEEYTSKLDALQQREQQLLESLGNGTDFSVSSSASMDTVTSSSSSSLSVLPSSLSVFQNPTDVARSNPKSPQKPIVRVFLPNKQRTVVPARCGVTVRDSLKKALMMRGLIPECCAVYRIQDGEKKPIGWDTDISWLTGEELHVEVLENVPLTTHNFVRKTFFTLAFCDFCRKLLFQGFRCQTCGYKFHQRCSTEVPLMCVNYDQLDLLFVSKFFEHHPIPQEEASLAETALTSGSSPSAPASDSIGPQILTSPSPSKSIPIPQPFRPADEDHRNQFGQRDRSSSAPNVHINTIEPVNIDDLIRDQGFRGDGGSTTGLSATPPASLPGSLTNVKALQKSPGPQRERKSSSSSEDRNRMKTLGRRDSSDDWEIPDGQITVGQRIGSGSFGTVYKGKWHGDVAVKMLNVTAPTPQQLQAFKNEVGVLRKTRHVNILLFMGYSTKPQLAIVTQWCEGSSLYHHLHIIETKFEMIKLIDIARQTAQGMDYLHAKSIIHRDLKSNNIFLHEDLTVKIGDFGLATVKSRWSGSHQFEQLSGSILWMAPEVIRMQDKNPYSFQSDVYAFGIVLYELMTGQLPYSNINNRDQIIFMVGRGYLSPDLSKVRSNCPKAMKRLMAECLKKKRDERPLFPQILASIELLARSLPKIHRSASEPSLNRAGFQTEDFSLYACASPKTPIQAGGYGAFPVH

[3] = target: T2, Inhibitor of nuclear factor kappa-B kinase subunit beta (Homo sapiens) (UniProt O14920)
T2 sequence (whole entry): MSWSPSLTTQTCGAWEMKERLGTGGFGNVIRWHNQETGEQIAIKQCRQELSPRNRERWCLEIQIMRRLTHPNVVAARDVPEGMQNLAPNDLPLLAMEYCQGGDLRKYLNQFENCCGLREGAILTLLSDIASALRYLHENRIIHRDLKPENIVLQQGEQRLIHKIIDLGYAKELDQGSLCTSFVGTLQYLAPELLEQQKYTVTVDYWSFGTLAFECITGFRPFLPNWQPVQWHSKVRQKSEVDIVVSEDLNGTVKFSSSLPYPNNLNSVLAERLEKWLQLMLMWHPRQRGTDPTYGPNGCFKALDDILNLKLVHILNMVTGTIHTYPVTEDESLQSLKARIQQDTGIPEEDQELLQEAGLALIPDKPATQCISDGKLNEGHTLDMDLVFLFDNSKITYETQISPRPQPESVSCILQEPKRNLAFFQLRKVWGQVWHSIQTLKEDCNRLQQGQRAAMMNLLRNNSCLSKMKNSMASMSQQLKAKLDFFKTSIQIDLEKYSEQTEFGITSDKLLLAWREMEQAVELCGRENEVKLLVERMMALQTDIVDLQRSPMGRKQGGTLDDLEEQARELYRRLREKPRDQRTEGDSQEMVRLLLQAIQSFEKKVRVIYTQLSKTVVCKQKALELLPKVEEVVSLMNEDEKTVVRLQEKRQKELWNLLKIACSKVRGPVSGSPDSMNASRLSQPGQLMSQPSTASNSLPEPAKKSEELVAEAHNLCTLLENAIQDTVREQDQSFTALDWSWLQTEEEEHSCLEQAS

[4] = target: Interferon-induced, double-stranded RNA-activated protein kinase (Homo sapiens) (UniProt P19525)
Chain of Interferon-induced, double-stranded RNA-activated protein kinase (Homo sapiens) (P19525 whole entry): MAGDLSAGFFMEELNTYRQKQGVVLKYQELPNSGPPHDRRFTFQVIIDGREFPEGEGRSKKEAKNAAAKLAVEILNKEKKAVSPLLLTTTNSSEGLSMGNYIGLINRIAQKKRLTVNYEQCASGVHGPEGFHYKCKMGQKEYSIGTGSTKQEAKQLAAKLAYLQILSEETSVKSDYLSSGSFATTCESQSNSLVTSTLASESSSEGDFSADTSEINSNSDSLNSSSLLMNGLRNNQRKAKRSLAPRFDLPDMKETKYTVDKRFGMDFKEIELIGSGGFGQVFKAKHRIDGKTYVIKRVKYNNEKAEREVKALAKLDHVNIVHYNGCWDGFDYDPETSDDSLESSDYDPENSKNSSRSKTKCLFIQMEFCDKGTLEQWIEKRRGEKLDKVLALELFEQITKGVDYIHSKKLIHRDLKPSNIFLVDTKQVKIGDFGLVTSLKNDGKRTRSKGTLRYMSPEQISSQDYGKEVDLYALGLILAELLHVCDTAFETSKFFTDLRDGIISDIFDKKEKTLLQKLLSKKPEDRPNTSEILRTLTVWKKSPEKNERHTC

[5] = target: 5'-AMP-activated protein kinase catalytic subunit alpha-2 (Homo sapiens) (UniProt P54646)
Chain of 5'-AMP-activated protein kinase catalytic subunit alpha-2 (Homo sapiens) (P54646 whole entry, looked up): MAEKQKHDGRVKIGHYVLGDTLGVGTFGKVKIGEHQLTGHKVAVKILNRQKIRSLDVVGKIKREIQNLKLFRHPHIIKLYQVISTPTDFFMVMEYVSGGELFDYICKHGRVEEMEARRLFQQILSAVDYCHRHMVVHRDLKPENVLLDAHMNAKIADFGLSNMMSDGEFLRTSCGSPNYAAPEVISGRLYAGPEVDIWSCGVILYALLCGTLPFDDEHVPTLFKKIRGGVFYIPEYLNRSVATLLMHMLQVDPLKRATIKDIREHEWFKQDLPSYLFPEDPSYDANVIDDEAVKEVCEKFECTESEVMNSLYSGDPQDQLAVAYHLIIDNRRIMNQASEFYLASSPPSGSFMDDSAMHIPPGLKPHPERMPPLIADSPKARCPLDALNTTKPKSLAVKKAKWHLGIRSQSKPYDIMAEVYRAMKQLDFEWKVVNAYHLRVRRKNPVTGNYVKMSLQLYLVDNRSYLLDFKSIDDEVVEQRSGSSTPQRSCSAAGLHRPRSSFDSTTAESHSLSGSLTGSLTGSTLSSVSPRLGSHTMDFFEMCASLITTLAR

[6] = target: Ribosomal protein S6 kinase beta-1 (Homo sapiens) (UniProt P23443)
Chain of Ribosomal protein S6 kinase beta-1 (Homo sapiens) (P23443 whole entry, looked up): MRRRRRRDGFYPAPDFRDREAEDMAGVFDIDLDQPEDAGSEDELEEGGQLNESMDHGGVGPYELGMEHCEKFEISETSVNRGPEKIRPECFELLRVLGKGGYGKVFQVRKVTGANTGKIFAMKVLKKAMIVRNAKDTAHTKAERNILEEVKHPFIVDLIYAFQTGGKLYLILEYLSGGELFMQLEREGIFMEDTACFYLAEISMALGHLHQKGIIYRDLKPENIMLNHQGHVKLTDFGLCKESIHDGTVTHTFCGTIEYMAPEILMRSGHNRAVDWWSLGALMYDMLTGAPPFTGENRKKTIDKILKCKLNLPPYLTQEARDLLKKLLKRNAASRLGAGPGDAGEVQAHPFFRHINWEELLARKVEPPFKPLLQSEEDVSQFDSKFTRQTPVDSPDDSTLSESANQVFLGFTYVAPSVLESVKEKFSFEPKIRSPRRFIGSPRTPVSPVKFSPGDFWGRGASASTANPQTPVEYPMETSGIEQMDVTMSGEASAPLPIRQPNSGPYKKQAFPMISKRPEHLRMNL

[7] = target: Fibroblast growth factor receptor 4 (Homo sapiens) (UniProt P22455)
Chain of Fibroblast growth factor receptor 4 (Homo sapiens) (P22455 22-802 limits assumed): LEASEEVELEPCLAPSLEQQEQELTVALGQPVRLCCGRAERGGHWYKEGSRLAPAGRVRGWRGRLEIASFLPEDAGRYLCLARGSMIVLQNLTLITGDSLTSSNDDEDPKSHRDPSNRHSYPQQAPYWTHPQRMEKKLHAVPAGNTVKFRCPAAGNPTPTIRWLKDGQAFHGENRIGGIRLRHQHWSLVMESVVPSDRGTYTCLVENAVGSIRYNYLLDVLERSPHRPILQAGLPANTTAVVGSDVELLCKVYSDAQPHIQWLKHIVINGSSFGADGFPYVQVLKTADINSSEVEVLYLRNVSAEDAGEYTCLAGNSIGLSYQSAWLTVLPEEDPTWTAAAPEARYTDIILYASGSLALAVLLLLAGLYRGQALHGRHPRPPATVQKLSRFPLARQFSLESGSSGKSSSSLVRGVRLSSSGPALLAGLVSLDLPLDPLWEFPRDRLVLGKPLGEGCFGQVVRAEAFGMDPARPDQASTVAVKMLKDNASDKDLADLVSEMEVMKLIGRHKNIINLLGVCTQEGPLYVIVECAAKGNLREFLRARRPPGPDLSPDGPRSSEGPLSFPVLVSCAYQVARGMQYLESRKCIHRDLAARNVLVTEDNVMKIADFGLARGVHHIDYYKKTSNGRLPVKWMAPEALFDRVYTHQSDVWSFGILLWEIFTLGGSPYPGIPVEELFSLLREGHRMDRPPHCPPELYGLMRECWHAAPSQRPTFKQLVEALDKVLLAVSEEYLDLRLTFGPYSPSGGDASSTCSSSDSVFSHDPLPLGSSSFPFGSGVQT

[8] = target: T3, Myosin-IIIb (Homo sapiens) (UniProt Q8WXR4)
T3 sequence (whole entry): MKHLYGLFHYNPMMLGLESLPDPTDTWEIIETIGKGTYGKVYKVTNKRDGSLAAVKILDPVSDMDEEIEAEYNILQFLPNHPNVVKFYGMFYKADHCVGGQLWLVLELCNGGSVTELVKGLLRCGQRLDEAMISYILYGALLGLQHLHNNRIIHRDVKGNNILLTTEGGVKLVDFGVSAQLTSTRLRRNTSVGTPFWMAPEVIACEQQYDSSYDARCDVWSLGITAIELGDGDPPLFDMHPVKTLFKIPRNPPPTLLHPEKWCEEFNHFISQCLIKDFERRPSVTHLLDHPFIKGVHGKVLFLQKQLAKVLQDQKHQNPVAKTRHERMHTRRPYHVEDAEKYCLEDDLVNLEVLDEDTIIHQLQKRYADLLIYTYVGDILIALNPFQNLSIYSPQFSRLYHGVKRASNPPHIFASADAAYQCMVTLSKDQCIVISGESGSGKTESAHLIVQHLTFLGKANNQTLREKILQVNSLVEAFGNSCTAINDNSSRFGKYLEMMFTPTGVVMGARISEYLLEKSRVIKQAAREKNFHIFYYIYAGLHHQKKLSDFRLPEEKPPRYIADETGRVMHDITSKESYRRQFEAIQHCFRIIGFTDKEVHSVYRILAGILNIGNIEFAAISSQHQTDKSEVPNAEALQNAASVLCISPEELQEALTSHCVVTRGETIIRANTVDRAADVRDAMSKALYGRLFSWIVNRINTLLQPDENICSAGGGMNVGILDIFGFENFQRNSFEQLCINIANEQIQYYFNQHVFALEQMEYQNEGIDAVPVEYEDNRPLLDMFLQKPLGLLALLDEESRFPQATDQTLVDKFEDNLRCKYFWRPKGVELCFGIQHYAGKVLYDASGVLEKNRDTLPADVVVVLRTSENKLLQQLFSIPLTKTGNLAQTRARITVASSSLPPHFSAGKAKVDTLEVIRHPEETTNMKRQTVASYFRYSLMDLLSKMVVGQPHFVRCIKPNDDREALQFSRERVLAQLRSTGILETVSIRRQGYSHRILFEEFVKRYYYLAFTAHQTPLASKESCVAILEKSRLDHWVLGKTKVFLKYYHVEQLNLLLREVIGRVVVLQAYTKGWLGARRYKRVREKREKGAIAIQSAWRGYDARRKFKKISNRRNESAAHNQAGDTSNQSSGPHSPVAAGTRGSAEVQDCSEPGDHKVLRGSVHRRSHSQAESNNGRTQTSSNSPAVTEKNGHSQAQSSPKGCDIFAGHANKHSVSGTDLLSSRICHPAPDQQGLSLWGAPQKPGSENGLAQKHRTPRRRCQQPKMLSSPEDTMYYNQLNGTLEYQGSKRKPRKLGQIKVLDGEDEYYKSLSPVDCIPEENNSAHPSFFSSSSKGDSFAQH

Measured: % residual kinase activity

CN1CCN(c2cnc3c(C4CCN(C(=O)c5ccc(OC(F)(F)F)cc5N)CC4)ncnc3c2)CC1 [BAY-885]
inactive: [1] 112% | [2] 109% | [3] 106% | [4] 115% | [5] 109% | [6] 118% | [7] 96% | [8] 111%
